According to PMC8333062, “Chemical tools for epichaperome-mediated interactome dysfunctions of the central nervous system” (Nature Communications, 2021):
Where “and” joins values, the source holds several entries; their conditions need not be identical. Equal values may be shown once.

Key:
[1] = test system: intracranial MDA-MB-468 tumors; assay: PET of intracranial tumors; type: in vivo, mouse; set-up: radioactivity, Blood / radioactivity, Brain, normal / radioactivity, Tumor - intracranial: unit: %ID/g (percent injected dose per gram); settings: for radioactivity, Blood / radioactivity, Brain, normal / radioactivity, Tumor - intracranial: mean n=5
Procedure: We next investigated if the CNS-directed epichaperome probes detect epichaperome positivity and engage the target in brain tumors. MDA-MB-468 is a triple-negative breast cancer cell line, an aggressive breast cancer subtype with high propensity of metastasizing to the brain. We therefore initiated our studies with intracranial MDA-MB-468 tumors. We imaged the real-time whole-body distribution of [^124I]-labeled PU-HZ151 ([^124I]-PU-HZ151) between 1 h and 72 h to observe that PU-HZ151 was evenly distributed throughout the body with brain exposure equaling that of other tissues and non-metabolizing organs (see PET image at 1 h, Fig. 4a). A rapid clearance from HSP90 (present throughout the brain) but not epichaperome (present only in the tumor), provided unambiguous visualization and quantitation of epichaperome positivity through PET imaging. […] We also confirmed target positivity, and specific target and probe co-localization, through radiography and associated hematoxylin and eosin staining of brain tissue (Fig. 4c–e).
(§1) Orthotopic GBM xenografts in mice were established by injection of 5 × 10^5 cells in 2 μL PBS. For PET analyses, GSCs were injected into the striatum. Boreholes were made using a small hand drill. Mice were imaged with MRI (typically ~ 2–3 weeks after injection), and – if tumors were visible on MRI – they were imaged by micro-PET using the [^124I]-radiolabeled PU-HZ151. When mice started showing symptoms of progressing GBM, they received a microdose of [^124I]-PU-HZ151 and serial PET scans were performed at 20 mins, 6, 24, 48, 72, and 96 h post tracer administration using a dedicated small-animal PET scanner (Focus 120 microPET; Siemens Medical Solutions, USA, formerly Concorde Microsystems, Knoxville, TN). Mice were maintained under 2% isoflurane (Baxter Healthcare, Deerfield, IL) anesthesia in oxygen at 2 L min^−1 during the entire scanning period. To reduce the thyroid uptake of free iodide arising from metabolism of tracer, mice received 0.01% potassium iodide solution in their drinking water starting 48 h prior to tracer administration. For PET imaging, each mouse was administered [^124I]-PU-HZ151 (15 µCi g^−1, 3 µCi µL^−1 in saline, Hospira, 0.9% sodium chloride in water) via the tail vein or ip. Approximately 5 min prior to PET acquisition, mice were anesthetized by inhalation of a mixture of isoflurane (Baxter Healthcare, Deerfield, IL, USA; 2% isoflurane, 2 L min^−1 medical air) and positioned on the scanner bed. Anesthesia was maintained using a 1% isoflurane-O2 mixture. PET data for each mouse was recorded using static scans of 15 min and acquired at the indicated times post injection. Quantification and %ID g^−1 values were calculated by manually drawing regions of interests in three different frames and determining the average values using ASI Pro VM™ MicroPET Analysis software (Siemens Medical Solutions, Knoxville, TX).

[2] = Plasma pharmacokinetics in human patients; type: in vivo; settings: order Patient#1, #2, #3, Mean
[3] = test system: intracranial MDA-MB-468 tumors; assay: PET of intracranial tumors; type: in vivo, mouse; set-up: unit: %ID/g (percent injected dose per gram); settings: 96 h, mean n=5
lung carcinoma = assay: PET in a lung cancer patient; type: in vivo, human
[4] = Adverse events in human patients (NCT03371420); type: in vivo; settings: single microdose iv
GBM#8 = assay: PET of intracranial tumors; type: in vivo, mouse; settings: microdose iv
Procedure: (§2) To test if our probes can detect and differentiate in vivo the epichaperome-dependent tumors from those that are not, we next performed intracranial xenotransplantation of GSCs from epichaperome-high (GSC#8), -medium (GSC#7; GSC#19) and -negative (GSC#5) specimens. For comparison we used intracranially xenotransplanted MDA-MB-468 tumors (Fig. 7a).
as §1

GBM#5 = assay: PET of intracranial tumors; type: in vivo, mouse; settings: microdose iv
Procedure: as §2, §1

GBM#7 = assay: PET of intracranial tumors; type: in vivo, mouse; settings: microdose iv
Procedure: as §2, §1

GBM#19 = assay: PET of intracranial tumors; type: in vivo, mouse; settings: microdose iv
Procedure: as §2, §1

[5] = PET biodistribution in human patients; type: in vivo; settings: human, in vivo
Source text: To evaluate the brain permeability of PU-HZ151 into the human brain, we produced the [^124I]-labeled derivative and performed serial PET imaging studies of human patients (n = 3; NCT03371420), and derived time-activity (i.e. standard uptake values (SUV) versus time post-administration) curves for the brain and various other tissues (Fig. 2b). PET data obtained for [^124I]-labeled PU-H71 (NCT01269593 and ref. [39]) were used for comparison. […] The AUC values recorded for [^124I]-PU-HZ151 in the human brain post-single injection are at par with what was measured in the human muscle and lung, supportive of uptake of PU-HZ151 into the human brain (Fig. 2b). Magnetic resonance imaging (MRI), by offering structural and soft tissue resolution, confirmed the presence of PU-HZ151 in the brain tissue (Fig. 2d). […] The secondary outcome of the trial was to measure adverse events following administration of the probe. Safety of [^124I]-PU-HZ151 in human subjects was assessed by evaluation of the incidence, nature, and severity of adverse events and serious adverse events (Supplementary Note 2).
[^124I]-PU-HZ151 and [^124I]-PU-H71 were synthesized in-house by the institutional cyclotron core facility at high specific activity. Analyses of the epichaperome by positron emission tomography (PET-CT) were performed as previously reported. In brief, research PET-CT was performed using an integrated PET-CT scanner (Discovery DSTE, GE Healthcare). CT scans for attenuation correction and anatomic coregistration were performed before tracer injection. Patients received 5 mCi of [^124I]-PU-HZ151 or [^124I]-PU-H71 by peripheral vein over 2 min. PET data were reconstructed using a standard ordered subset expected maximization iterative algorithm. Emission data were corrected for scatter, attenuation, and decay. PET scans were performed 0.5, 3, and 24 h after tracer administration. Numbers in the scale bar indicate upper and lower standardized uptake value (SUV) thresholds that define pixel intensity on PET images. SUV is a pixel value, derived from PET measurements of in vivo radioactivity, quantified as the fraction of the radioactive dose injected found in a cubic centimeter of measured tissue multiplied (ie, normalized) by patient body weight (grams). Maximum Intensity Projection (MIP) 3D images were constructed from the voxels with maximum intensity that fell in the way of parallel rays traced from the viewpoint to the plane of projection. At each pixel the highest data value encountered along the corresponding viewing ray was determined. MRI scans were obtained as part of routine clinical care using hardware and standard data acquisition and processing methods. MRI was obtained using a 1.5T magnet (Signa HDxt, GE Healthcare, Milwaukee, WI). […] Gadopentetate dimeglumine (Magnevist, HealthCare Pharmaceuticals Inc.) was injected though a peripheral angiocatheter at a standard dose (0.2 mL kg^−1 body weight, 40 mL, 2 cc s^−1). For precise localization of tracer uptake to specific neuroanatomical structures, PET brain images were fused to MRI brain images using the Integrated Registration application of the AW Suite software package (GE Healthcare, Milwaukee, Wisconsin, USA).

radioactivity, Blood ([1]; 1 h): 1.8445 | radioactivity, Brain, normal ([1]; 1 h): 0.4287 | radioactivity, Tumor - intracranial ([1]; 1 h): 2.4287 | radioactivity, Blood ([1]; 2 h): 0.7280 | radioactivity, Brain, normal ([1]; 2 h): 0.0550 | radioactivity, Blood ([1]; 6 h): 0.2100 | radioactivity, Brain, normal ([1]; 6 h): 0.1400 | radioactivity, Tumor - intracranial ([1]; 6 h): 0.6541 | radioactivity, Blood ([1]; 24 h): 0.0110 | radioactivity, Brain, normal ([1]; 24 h): 0.0010 | radioactivity, Tumor - intracranial ([1]; 24 h): 0.1284 | radioactivity, Blood ([1]; 48 h): 0.0060 | radioactivity, Brain, normal ([1]; 48 h): 0.0000 | radioactivity, Tumor - intracranial ([1]; 48 h): 0.0885 | radioactivity, Blood ([1]; 72 h): 0.0040 | radioactivity, Brain, normal ([1]; 72 h): 0.0000 | radioactivity, Tumor - intracranial ([1]; 72 h): 0.0351 | radioactivity, Brain, normal ([1]; 96 h): 0.0000 | 2nd Component Half-time [2]: 1.87 h and 2.97 h and 2.35 h | radioactivity, Blood [3]: 0.0050 | radioactivity, Brain-gray (lung carcinoma; 0.5 h): 1.16 SUV | radioactivity, Lung (lung carcinoma; 0.5 h): 0.56 SUV | radioactivity, Muscle (lung carcinoma; 0.5 h): 0.72 SUV | radioactivity, Tumor (lung carcinoma; 0.5 h): 2.52 SUV | radioactivity, Brain-gray (lung carcinoma; 3 h): 0.41 SUV | radioactivity, Lung (lung carcinoma; 3 h): 0.29 SUV | radioactivity, Muscle (lung carcinoma; 3 h): 0.32 SUV | radioactivity, Tumor (lung carcinoma; 3 h): 2.1 SUV | radioactivity, Brain-gray (lung carcinoma; 24 h): 0.03 SUV | radioactivity, Lung (lung carcinoma; 24 h): 0.07 SUV | radioactivity, Muscle (lung carcinoma; 24 h): 0.09 SUV | radioactivity, Tumor (lung carcinoma; 24 h): 0.79 SUV | biological half-life in normal brain tissue [5]: less than 0.5 hours
Structure (SMILES): CC(C)(C)CNCCn1c(Sc2cc3c(cc2[124I])OCO3)nc2c(N)ncnc21 [[124I]-PU-HZ151]
AUC^tumor/blood ([1]; PET, microdose iv): 1303 | 2nd Component Half-time ([2]; then text value): 1.87 h and 2.97 h and 2.2 h and 2.35 h and 2.35 ± 0.563 h | area under the curve (AUC) ([2]; plasma): 0.0225 (%ID g-1)h and 0.0199 (%ID g-1)h and 0.0127 (%ID g-1)h and 0.0184 (%ID g-1)h | probe-related toxicity [4]: No radioiodinated probe-related toxicity was evident | AUC^tumor/blood (GBM#8): 80 | AUC^tumor/blood (GBM#5): 143 | AUC^tumor/blood (GBM#7): 893 | AUC^tumor/blood (GBM#19): 444
